Measured values from EPA's ToxValDB 9.5.

Assays:
Rattus norvegicus = details: oral
Mus musculus = details: oral
[1] = short-term, duration: 1 weeks, diet, M, Wistar, Body Weight: ~32% weight loss
[2] = short-term, duration: 28 days, F, Sprague-Dawley, Body Weight: Decreased body weight gain (21%)
[3] = short-term, duration: 28 days, F, Sprague-Dawley, Hematological: Decreased MCH and MCHC + Immunotoxicological: Decreased phagocytosis by fixed tissue macrophages in the liver
[4] = short-term, duration: 28 days, F, Sprague-Dawley, Hepatic: Single cell necrosis
[5] = acute, duration: 1 days, gavage, F, Body Weight: 12% decreased body weight 30 days post-exposure + Endocrine: 2-fold increase in T3 and 4-fold increase in T4 levels 30 days …
[6] = developmental, duration: 10 days, gavage, F, Body Weight: No weight gain at 6.4 mg/kg/day and weight loss at 12.8 mg/kg/day (net change of -2.4)
[7] = developmental, duration: 10 days, gavage, F, Developmental: 18-22% decreases in fetal weight per litter at ?1 mg/kg/day / decreases in live fetuses per litter at 12.8 mg/kg/day (4.6 …
[8] = short-term, duration: 4 weeks, F, B6C3F1, Immunotoxicological: Decreases in splenic T-cells, T-cell subsets, and macrophages

O=C(O)C(F)(F)C(F)(F)C(F)(F)C(F)(F)C(F)(F)C(F)(F)C(F)(F)C(F)(F)C(F)(F)F [Perfluorodecanoic acid]
LOAEL (Rattus norvegicus; acute, duration: 1 days, gavage, M, Wistar, Body Weight: 8% weight loss was observed 10-days post-exposure): 50 mg/kg-day
NOAEL (Rattus norvegicus; acute, duration: 1 days, gavage, M, Wistar, Neurological: No alteration in performance on novel object recognition test): 50 mg/kg-day
LOAEL (Rattus norvegicus; [1]): 9.5 mg/kg-day
NOAEL (Rattus norvegicus; [1]): 4.7 mg/kg-day
NOAEL (Rattus norvegicus; short-term, duration: 1 weeks, diet, M, Wistar, Hepatic: Increases in liver weight at ?2.4 mg/kg/day / increases in hepatic cholesterol at 9.5 mg/kg/day): 9.5 mg/kg-day
LOAEL (Rattus norvegicus; [2]): 1 mg/kg-day
NOAEL (Rattus norvegicus; [2]): 0.5 mg/kg-day
LOAEL (Rattus norvegicus; [3]): 0.25 mg/kg-day
NOAEL (Rattus norvegicus; [3]): 0.125 mg/kg-day
LOAEL (Rattus norvegicus; [4]): 0.5 mg/kg-day
NOAEL (Rattus norvegicus; [4]): 0.25 mg/kg-day
LOAEL (Mus musculus; [5]): 80 mg/kg-day
NOAEL (Mus musculus; [5]): 40 mg/kg-day
NOAEL (Mus musculus; acute, duration: 1 days, gavage, F, Cardiovascular: No histological alterations in the heart 30 days post-exposure / decreased relative heart weight at 80 mg/kg/day + Hepatic…): 80 mg/kg-day
LOAEL (Mus musculus; acute, duration: 1 days, gavage, F, Death: LD50 in 30-day observation period): 120 mg/kg-day
NOAEL (Mus musculus; acute, duration: 1 days, gavage, F, Hepatic: Increase in hepatic lipids and liver weight 2 days post-exposure at 40 mg/kg/day): 160 mg/kg-day
LOAEL (Mus musculus; acute, duration: 1 days, gavage, F, Immunotoxicological: 28% decrease in relative spleen weight at 80 mg/kg/day / atrophy and lymphoid depletion in thymus and spleen at 160 mg…): 160 mg/kg-day
NOAEL (Mus musculus; developmental, duration: 1 days, gavage, M, CD1, Developmental: No alteration in spontaneous activity or habituation at 2-4 months of age): 10.8 mg/kg-day
LOAEL (Mus musculus; [6]): 6.4 mg/kg-day
NOAEL (Mus musculus; [6]): 3 mg/kg-day
LOAEL (Mus musculus; developmental, duration: 10 days, gavage, F, Body Weight: No weight gain at 6.4 mg/kg/day and weight loss at 12.8 mg/kg/day (net change of -2.4) + Developmental: 18-22% decreases in …): 12.8 mg/kg-day
LOAEL (Mus musculus; [7]): 1 mg/kg-day
NOAEL (Mus musculus; [7]): 0.3 mg/kg-day
NOAEL (Mus musculus; short-term, duration: 4 weeks, F, B6C3F1): 5 mg/kg-day
LOAEL (Mus musculus; [8]): 1.25 mg/kg-day
NOAEL (Mus musculus; [8]): 0.625 mg/kg-day
LOAEL (Mus musculus; short-term, duration: 10 days, diet, M, Body Weight: 33% weight loss): 78 mg/kg-day
NOAEL (Mus musculus; short-term, duration: 10 days, diet, M, Hepatic: 36% increase in liver weight): 78 mg/kg-day
